{"source": "patent US10287293B2", "about": "“Bicyclic heterocyclic compounds as PDE2 inhibitors” (Merck Sharp & Dohme Corp., priority 2015, dated 2019)", "key": {"[1]": {"conditions": "literature report; cited from earlier work"}, "other PDE isoforms": {"test_system": "other PDE isoforms", "conditions": "literature report; cited from earlier work"}, "human PDE2A1": {"target": "human PDE2A1 (Homo sapiens (Human), UniProt O00408)", "sequence (O00408 other isoform, or with tags, fused parts or gaps)": "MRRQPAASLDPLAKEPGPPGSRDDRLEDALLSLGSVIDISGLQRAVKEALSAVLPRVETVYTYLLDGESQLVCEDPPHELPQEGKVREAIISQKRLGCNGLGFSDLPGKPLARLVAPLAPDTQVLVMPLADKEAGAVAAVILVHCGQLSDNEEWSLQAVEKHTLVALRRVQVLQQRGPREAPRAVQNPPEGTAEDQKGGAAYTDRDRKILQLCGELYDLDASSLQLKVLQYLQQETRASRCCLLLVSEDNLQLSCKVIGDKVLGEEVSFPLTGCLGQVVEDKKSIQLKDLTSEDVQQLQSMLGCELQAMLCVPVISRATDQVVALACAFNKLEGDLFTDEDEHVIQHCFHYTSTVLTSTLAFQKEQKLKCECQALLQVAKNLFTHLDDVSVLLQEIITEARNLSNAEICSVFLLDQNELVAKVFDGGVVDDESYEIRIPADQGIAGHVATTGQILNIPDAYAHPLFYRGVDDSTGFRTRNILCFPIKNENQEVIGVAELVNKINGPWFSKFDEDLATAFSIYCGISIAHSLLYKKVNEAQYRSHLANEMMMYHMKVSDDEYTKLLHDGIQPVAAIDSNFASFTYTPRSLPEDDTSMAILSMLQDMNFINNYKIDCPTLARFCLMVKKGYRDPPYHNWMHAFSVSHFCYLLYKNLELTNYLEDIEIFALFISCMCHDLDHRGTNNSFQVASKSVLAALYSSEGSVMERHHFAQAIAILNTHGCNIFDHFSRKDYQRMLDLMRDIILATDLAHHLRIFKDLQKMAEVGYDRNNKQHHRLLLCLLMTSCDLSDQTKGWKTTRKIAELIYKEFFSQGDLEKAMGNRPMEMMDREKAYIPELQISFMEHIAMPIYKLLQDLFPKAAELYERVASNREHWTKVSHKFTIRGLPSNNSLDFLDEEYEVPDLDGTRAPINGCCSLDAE", "assay": "PDE selectivity panel IMAP FP assay, human PDE2", "type": "biochemical", "conditions": "FAM cAMP 50 nM containing 1000 nM cGMP", "procedure": "Selectivity for PDE2, as compared to other PDE families, was assessed using the IMAP® technology. Human PDE10A2 enzyme was prepared from cytosolic fractions of transiently transfected HEK cells. […] The enzyme and the substrate were then added to the assay plates in two consecutive additions of 10 μL and then shaken to mix. The reaction was allowed to proceed at room temperature for 60 minutes. […] The enzymatic reaction was stopped by addition of 60 μL of the binding solution to each well of the assay plate. The plates were sealed and shaken for 10 seconds. The plates were incubated at room temperature for one hour, then the parallel and perpendicular fluorescence was measured using a Tecan Genios Pro plate reader (Tecan, Switzerland). […] The intrinsic PDE2 inhibitory activity of a compound which may be used in accordance with the present invention may be determined by these assays. […] Additional data is provided in the following Examples."}, "Rhesus PDE2A3": {"target": "Rhesus PDE2A3 (Macaca mulatta, UniProt B3VTJ2)", "sequence (B3VTJ2 1-941)": "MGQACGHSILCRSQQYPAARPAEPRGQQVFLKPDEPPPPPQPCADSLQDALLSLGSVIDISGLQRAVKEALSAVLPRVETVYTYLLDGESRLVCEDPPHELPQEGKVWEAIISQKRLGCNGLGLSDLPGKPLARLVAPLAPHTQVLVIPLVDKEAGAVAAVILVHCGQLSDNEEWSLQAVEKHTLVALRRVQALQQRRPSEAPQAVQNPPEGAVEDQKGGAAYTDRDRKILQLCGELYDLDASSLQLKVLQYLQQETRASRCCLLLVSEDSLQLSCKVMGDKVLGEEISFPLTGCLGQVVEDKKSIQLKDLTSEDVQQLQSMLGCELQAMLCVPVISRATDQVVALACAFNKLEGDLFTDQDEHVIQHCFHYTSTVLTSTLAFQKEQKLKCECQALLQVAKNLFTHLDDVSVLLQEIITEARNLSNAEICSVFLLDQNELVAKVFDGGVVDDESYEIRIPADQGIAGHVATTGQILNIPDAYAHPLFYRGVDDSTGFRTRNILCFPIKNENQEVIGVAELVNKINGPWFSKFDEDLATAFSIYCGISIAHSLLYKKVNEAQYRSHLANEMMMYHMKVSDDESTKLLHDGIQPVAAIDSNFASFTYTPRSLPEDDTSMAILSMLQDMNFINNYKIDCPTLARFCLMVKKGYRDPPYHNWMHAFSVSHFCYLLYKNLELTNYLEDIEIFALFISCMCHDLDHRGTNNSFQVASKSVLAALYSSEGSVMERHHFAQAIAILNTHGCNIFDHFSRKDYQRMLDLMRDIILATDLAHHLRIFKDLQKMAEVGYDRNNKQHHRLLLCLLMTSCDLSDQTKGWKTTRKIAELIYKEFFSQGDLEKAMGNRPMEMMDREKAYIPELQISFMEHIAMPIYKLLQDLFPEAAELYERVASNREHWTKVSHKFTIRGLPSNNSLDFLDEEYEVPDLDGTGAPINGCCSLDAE", "assay": "PDE2 fluorescence polarization (IMAP FP) inhibition assay, rhesus enzyme", "type": "biochemical, rhesus macaque", "conditions": "FAM-cAMP 50 nM substrate, cGMP 1 uM activator"}}, "data": [{"smiles": "COc1ccc(Cc2nn3c([C@@H](CCCc4ccccc4)[C@@H](C)O)nc(C)c3c(=O)[nH]2)cc1OC", "note": "[Bay 60-7550]", "values": [{"measurement": "brain penetration", "setting": "[1]", "result": "limited"}, {"measurement": "potency at other PDE isoforms", "setting": "other PDE isoforms", "result": "significant potency"}]}, {"smiles": "Cc1nc2c(C(C)c3cccc(C(F)(F)F)c3F)nn(CCO)c2c(=O)[nH]1", "note": "(single isomer, unassigned) [Example 10, (S)- or (R)-3-(1-(2-Fluoro-3-(trifluoromethyl)phenyl)ethyl)-1-(2-hydroxyethyl)-5-methyl-1,6-dihydro-7H-pyrazolo[4,3-d]pyrimidin-7-one]", "values": [{"measurement": "Ki", "setting": "human PDE2A1", "result": 206, "unit": "nM"}]}, {"smiles": "Cc1nc2c([C@@H](C)c3ccc(C(F)(F)F)cc3)nn([C@H](C)CO)c2c(=O)[nH]1", "note": "(single isomer, unassigned) [Example 21, 1-((R)-1-Hydroxypropan-2-yl)-5-methyl-3-((S)-1-(4-(trifluoromethyl)phenyl)ethyl)-1,6-dihydro-7H-pyrazolo[4,3-d]pyrimidin-7-one or 1-((R)-1-Hydroxypropan-2-yl)-5-methyl-3-((R)-1-(4-(trifluoromethyl)phenyl)ethyl)-1,6-dihydro-7H-pyrazolo[4,3-d]pyrimidin-7-one]", "values": [{"measurement": "Ki", "setting": "human PDE2A1", "result": 239, "unit": "nM"}]}, {"smiles": "Cc1nn2c([C@@H](C)c3ccc(C(F)(F)F)cc3)nc(C)c2c(=O)[nH]1", "note": "(single isomer, unassigned) [Example 26]", "values": [{"measurement": "Ki", "setting": "Rhesus PDE2A3", "result": 779, "unit": "nM"}]}, {"smiles": "Cc1nn2c([C@@H](C)c3ccc(C(F)(F)F)cc3)nc(C)c2c(=O)[nH]1", "note": "(single isomer, unassigned) [Example 27]", "values": [{"measurement": "Ki", "setting": "Rhesus PDE2A3", "result": 21, "unit": "nM"}, {"measurement": "Ki", "setting": "human PDE2A1", "result": 17.2, "unit": "nM"}]}, {"smiles": "Cc1nn2c(C(C)c3ccc(C(F)(F)F)cc3F)nc(CO)c2c(=O)[nH]1", "note": "(single isomer, unassigned) [Example 30, (R)- or (S)-7-(1-(2-fluoro-4-(trifluoromethyl)phenyl)ethyl)-5-(hydroxymethyl)-2-methylimidazo[5,1-f][1,2,4]triazin-4(3H)-one]", "values": [{"measurement": "Ki", "setting": "human PDE2A1", "result": 200, "unit": "nM"}]}, {"smiles": "Cc1nc2c([C@@H](C)c3ccc(C(F)(F)F)cc3)nn([C@H](C)CO)c2c(=O)[nH]1", "note": "(single isomer, unassigned) [Example 22, 1-((R)-1-Hydroxypropan-2-yl)-5-methyl-3-((S)-1-(4-(trifluoromethyl)phenyl)ethyl)-1,6-dihydro-7H-pyrazolo[4,3-d]pyrimidin-7-one or 1-((R)-1-Hydroxypropan-2-yl)-5-methyl-3-((R)-1-(4-(trifluoromethyl)phenyl)ethyl)-1,6-dihydro-7H-pyrazolo[4,3-d]pyrimidin-7-one]", "values": [{"measurement": "Ki", "setting": "human PDE2A1", "result": 15.6, "unit": "nM"}]}, {"smiles": "Cc1nn2c([C@@H](C)c3ccc(C(F)(F)F)cc3)nc(CO)c2c(=O)[nH]1", "note": "(single isomer, unassigned) [Example 28]", "values": [{"measurement": "Ki", "setting": "human PDE2A1", "result": 298, "unit": "nM"}]}, {"smiles": "Cc1nn2c([C@@H](C)c3ccc(C(F)(F)F)cc3)nc(CO)c2c(=O)[nH]1", "note": "(single isomer, unassigned) [Example 29]", "values": [{"measurement": "Ki", "setting": "human PDE2A1", "result": 1.2, "unit": "nM"}]}, {"smiles": "Cc1nn2c(C(C)c3ccc(C(F)(F)F)c(F)c3)nc(CO)c2c(=O)[nH]1", "note": "(single isomer, unassigned) [Example 35, (S)- or (R)-7-(1-(3-fluoro-4-(trifluoromethyl)phenyl)ethyl)-5-(hydroxymethyl)-2-methylimidazo[5,1-f][1,2,4]triazin-4(3H)-one]", "values": [{"measurement": "Ki", "setting": "human PDE2A1", "result": 1, "unit": "nM"}]}, {"smiles": "Cc1nn2c([C@@H](C)c3ccc(C(F)(F)F)cc3)nc(CCO)c2c(=O)[nH]1", "note": "(single isomer, unassigned) [Example 39]", "values": [{"measurement": "Ki", "setting": "human PDE2A1", "result": 90.3, "unit": "nM"}]}, {"smiles": "Cc1nn2c(C(C)c3ccc(C(F)(F)F)cc3F)nc(CO)c2c(=O)[nH]1", "note": "(single isomer, unassigned) [Example 31, (S)- or (R)-7-(1-(2-fluoro-4-(trifluoromethyl)phenyl)ethyl)-5-(hydroxymethyl)-2-methylimidazo[5,1-f][1,2,4]triazin-4(3H)-one]", "values": [{"measurement": "Ki", "setting": "human PDE2A1", "result": 0.8, "unit": "nM"}]}, {"smiles": "Cc1nc2c(C(C)c3cccc(C(F)(F)F)c3F)nn(CCO)c2c(=O)[nH]1", "note": "(single isomer, unassigned) [Example 9, (R)- or (S)-3-(1-(2-Fluoro-3-(trifluoromethyl)phenyl)ethyl)-1-(2-hydroxyethyl)-5-methyl-1,6-dihydro-7H-pyrazolo[4,3-d]pyrimidin-7-one]", "values": [{"measurement": "Ki", "setting": "human PDE2A1", "result": 2800, "unit": "nM"}]}, {"smiles": "Cc1nn2c(C(C)c3ccc(C(F)(F)F)cc3)nc(CC#N)c2c(=O)[nH]1", "note": "(stereo not shown) [Example 38, 2-(2-methyl-4-oxo-7-(1-(4-(trifluoromethyl)phenyl)ethyl)-3,4-dihydroimidazo-[5,1-f][1,2,4]triazin-5-yl)acetonitrile]", "values": [{"measurement": "Ki", "setting": "human PDE2A1", "result": 6.1, "unit": "nM"}]}, {"smiles": "Cc1nn2c(C(C)c3ccc(C(F)(F)F)c(F)c3)nc(CO)c2c(=O)[nH]1", "note": "(single isomer, unassigned) [Example 34, (R)- or (S)-7-(1-(3-fluoro-4-(trifluoromethyl)phenyl)ethyl)-5-(hydroxymethyl)-2-methylimidazo[5,1-f][1,2,4]triazin-4(3H)-one]", "values": [{"measurement": "Ki", "setting": "human PDE2A1", "result": 216, "unit": "nM"}]}, {"smiles": "Cc1nn2c(C(C)c3ccc(C4(C)CC4)cc3)nc(CO)c2c(=O)[nH]1", "note": "(single isomer, unassigned) [Example 37, (S)- or (R)-5-(hydroxymethyl)-2-methyl-7-(1-(4-(1-methylcyclopropyl)phenyl)ethyl)imidazo[5,1-f][1,2,4]triazin-4(3H)-one]", "values": [{"measurement": "Ki", "setting": "human PDE2A1", "result": 0.4, "unit": "nM"}]}, {"smiles": "Cc1nc2c([C@@H](C)c3ccc(C(F)(F)F)cc3)nn([C@@H](C)CO)c2c(=O)[nH]1", "note": "(single isomer, unassigned) [Example 23, 1-((S)-1-Hydroxypropan-2-yl)-5-methyl-3-((S)-1-(4-(trifluoromethyl)phenyl)ethyl)-1,6-dihydro-7H-pyrazolo[4,3-d]pyrimidin-7-one or 1-((S)-1-Hydroxypropan-2-yl)-5-methyl-3-((R)-1-(4-(trifluoromethyl)phenyl)ethyl)-1,6-dihydro-7H-pyrazolo[4,3-d]pyrimidin-7-one]", "values": [{"measurement": "Ki", "setting": "human PDE2A1", "result": 142, "unit": "nM"}]}, {"smiles": "Cc1nn2c(C(C)c3ccc(OC(F)(F)F)cc3)nc(CO)c2c(=O)[nH]1", "note": "(single isomer, unassigned) [Example 33, (S)- or (R)-5-(hydroxymethyl)-2-methyl-7-(1-(4-(trifluoromethoxy)phenyl)ethyl)imidazo[5,1-f][1,2,4]triazin-4(3H)-one]", "values": [{"measurement": "Ki", "setting": "human PDE2A1", "result": 1.2, "unit": "nM"}]}, {"smiles": "Cc1nn2c(C(C)c3ccc(C4(C)CC4)cc3)nc(CO)c2c(=O)[nH]1", "note": "(single isomer, unassigned) [Example 36, (R)- or (S)-5-(hydroxymethyl)-2-methyl-7-(1-(4-(1-methylcyclopropyl)phenyl)ethyl)imidazo[5,1-f][1,2,4]triazin-4(3H)-one]", "values": [{"measurement": "Ki", "setting": "human PDE2A1", "result": 109, "unit": "nM"}]}, {"smiles": "Cc1nn2c(C(C)c3ccc(OC(F)(F)F)cc3)nc(CO)c2c(=O)[nH]1", "note": "(single isomer, unassigned) [Example 32, (R)- or (S)-5-(hydroxymethyl)-2-methyl-7-(1-(4-(trifluoromethoxy)phenyl)ethyl)imidazo[5,1-f][1,2,4]triazin-4(3H)-one]", "values": [{"measurement": "Ki", "setting": "human PDE2A1", "result": 62.5, "unit": "nM"}]}]}
